According to ChEMBL document CHEMBL1141755, “Flavonoids from the stem of Eriophorum scheuchzeri” (J Nat Prod, 2005):
The source made the active and inactive calls. The calls are words filed in the database; no cut-off is given here.

Tests used:
[1] = test system: Candida albicans; assay: Antifungal activity against Candida albicans at 10 ug after 3 days by MTT assay; assay type: functional, organism-based
[2] = test system: Radical scavenging activity; assay: Antioxidant activity assessed as DPPH radical scavenging activity at 10 ug; assay type: functional
[3] = test system: Cladosporium cucumerinum; assay: Antifungal activity against Cladosporium cucumerinum at 10 ug after 3 days by MTT assay; assay type: functional, organism-based
[4] = test system: Candida albicans; assay: Antifungal activity against Candida albicans at 5 ug after 3 days by MTT assay; assay type: functional, organism-based
[5] = test system: Cladosporium cucumerinum; assay: Antifungal activity against Cladosporium cucumerinum at 5 ug after 3 days by MTT assay; assay type: functional, organism-based
[6] = test system: Cladosporium cucumerinum; assay: Antifungal activity against Cladosporium cucumerinum at 1 ug after 3 days by MTT assay; assay type: functional, organism-based
[7] = test system: Radical scavenging activity; assay: Antioxidant activity assessed as DPPH radical scavenging activity at 5 ug; assay type: functional
[8] = test system: Radical scavenging activity; assay: Antioxidant activity assessed as DPPH radical scavenging activity at 1 ug; assay type: functional

Structure (SMILES)	Activity [1]	Activity [2]	Activity [3]	Activity [4]	Activity [5]	Activity [6]	Activity [7]	Activity [8]
COc1cc(O)c2c(=O)c(-c3ccc(O)c(C)c3O)coc2c1	Active	Active	Active	Active	inactive	inactive	Active	Active
CC1(C)C=Cc2c(cc(O)c3c(=O)c(-c4ccc(O)cc4O)coc23)O1	Active	Active	Active	Active	Active	Active	Active	Active
C=C(C)C(O)Cc1c(O)cc(O)c2c1OC(c1ccc(O)cc1)CC2=O (centres undefined)	Active	Active	Active	Active	Active	inactive	Active	Active
COc1cc(-c2cc(=O)c3c(O)cc(O)cc3o2)cc(OC)c1O	inactive	Active	inactive	inactive	inactive	inactive	Active	Active
COc1cc(O)c2c(=O)c(-c3ccc(O)c(C)c3OC)coc2c1	inactive	inactive	Active	inactive	Active	Active	inactive	inactive
CC1(C)C=Cc2c(cc3occ(-c4ccc(O)cc4O)c(=O)c3c2O)O1	Active	Active	Active	Active	Active	Active	Active	Active
COc1cc(O)c2c(=O)c(-c3ccc(O)cc3OC)coc2c1	inactive	Active	inactive	inactive	inactive	inactive	Active	inactive
COc1cc(O)c2c(=O)c(-c3ccc(O)cc3O)coc2c1	inactive	inactive	Active	inactive	Active	Active	inactive	inactive
